Earlier results on 1 compound are cited in patent US20070122366A1 (priority 2005, published 2007).

The conditions of series [1]: oral administration.

Consider `CN(C/C=C/C#CC(C)(C)C)Cc1cccc2ccccc12` [Terbinafine], for which the average mycological cure in the series on onychomycosis (18 randomized controlled trials, onychomycosis) was 76%. The “activity in comparative studies” value in the series with onychomycosis (treatment of toenail onychomycosis) was “greater than itraconazole and fluconazole”. Further, in series [1] (after the treatment has finished), the “persistence of concentration in nails” value is on record as “at least 30 weeks”. For the same compound, in series [1] (after therapy started), the “time at which concentration in nails is detected” value was “within the first week”.
